{"source": "paper PMC6079455", "about": "“Discovery of Novel Caeridins from the Skin Secretion of the Australian White's Tree Frog, Litoria caerulea” (International Journal of Genomics, 2018)", "key": {"[1]": {"tested_on": "S. aureus", "assay": "Membrane permeability on S. aureus (SYTOX Green)", "type": "cell-based, Staphylococcus aureus", "details": "2 h, 37°C, 1 × 10^8 CFU/ml, relative to 70% isopropanol", "protocol": "The cell membrane permeability of S. aureus was tested with SYTOX Green Nucleic Acid Stain (Life Technologies, Carlsbad, CA, USA). The log-phase S. aureus was pelleted and suspended in 5% TSB in 0.85% NaCl solution to achieve 1 × 10^8 CFU/ml cells which was then treated with peptide solutions at 37°C for 2 h. The maximum membrane-compromised S. aureus was produced by 70% isopropanol treatment. Subsequently, cells were mixed with 5 μM SYTOX Green stain and incubated in the dark for 10 min. The fluorescence was measured in a 37°C Synergy HT plate reader (Biolise BioTek ELx808, Winooski, VT, USA) at excitation and emission wavelengths of 480 nm and 528 nm, respectively. The membrane permeability was calculated as (1) Membrane permeability%=F−F0/F1−F0×100%, where F represents the processed fluorescence intensity with peptide treatments, F0 represents the processed fluorescence intensity of untreated S. aureus, and F1 represents the processed fluorescence intensity in the maximum membrane-compromised S. aureus (70% isopropanol-treated). The fluorescence intensities of background were subtracted prior to calculation."}, "[2]": {"tested_on": "horse erythrocytes", "assay": "Haemolytic test", "type": "cell-based", "details": "32 μM, horse red blood cells, 37°C, 2 h, relative to 1% Triton X-100", "protocol": "The haemolysis of Caeridins was tested on prepared defrinated horse red blood cells (TCS Biosciences Ltd., Buckingham, UK) by incubating equal volumes of peptide solutions with erythrocyte suspensions at 37°C for 2 H. Maximum haemolysis control was included by incubating equal volumes of 1% Triton X-100 (Sigma-Aldrich, St. Louis, MO, USA) with erythrocyte suspensions. Lysis of erythrocytes was detected by the measurement of supernatant absorbance at a wavelength of 550 nm using a Synergy HT plate reader (Biolise BioTek ELx808, Winooski, VT, USA). The level of haemolysis was as calculated as (3) Haemolysis %=A−A0/A1−A0×100%, where A represents the absorbance with peptide treatments, A0 represents the average absorbance in untreated erythrocytes, and A1 represents the average absorbance in the maximum haemolysis control (1% Triton X-100-treated)."}}, "note": "Ends that are not written are not given here.", "data": [{"substance": "GLFDIVGKLLGGLGL-NH2 [Caeridin-a1]", "values": [{"measurement": "membrane permeability of S. aureus at MBC", "setting": "[1]; peptide at its MBC", "result": "massively compromised"}, {"measurement": "membrane permeability of S. aureus at MIC", "setting": "[1]; peptide at its MIC", "result": "remained intact"}, {"measurement": "haemolysis", "setting": "[2]", "result": 18, "unit": "%"}]}]}
